Results from ChEMBL document CHEMBL3865792, “Antioxidant and antitumor activity of trolox, trolox succinate, and α-tocopheryl succinate conjugates with nitroxides” (Eur J Med Chem, 2016).

Test system: not listed separately
Experiment: Cytotoxicity against human RPMI8226 cells assessed as reduction in cell viability after 72 hrs by MTT assay
Format: functional, cell-based
Conditions: RPMI-8226, 72 h

Compound | IC50
Cc1c(C)c2c(c(C)c1OC(=O)CCC(=O)NCC1CC(C)(C)N([O])C1(C)C)CCC(C)(C(=O)NCC1CC(C)(C)N([O])C1(C)C)O2 (stereo unspecified) | 70 µM

Test system: not listed separately
Experiment: Genotoxicity in Escherichia coli PQ37 expressing lacZ gene assessed as ratio of inducible beta-galactosidase activity to alkaline phosphatase activity at 30 mM after 2 hrs by SOS-chromotest relative to control
Format: toxicity
Conditions: Escherichia coli PQ37 cells expressing lacZ gene, read-out: FC

Compound | fold induction at 2 h, 30000 µM
Cc1c(C)c2c(c(C)c1OC(=O)CCC(=O)NCC1CC(C)(C)N([O])C1(C)C)CCC(C)(C(=O)NCC1CC(C)(C)N([O])C1(C)C)O2 (stereo unspecified) | 1.2

Test system: Salmonella typhimurium
Experiment: Genotoxicity in Salmonella typhimurium TA102 harboring […] mutant assessed as frequency of reversion from histidine auxotrophy to prototrophy at 30 mM after 48 hrs by Ames test (reference value: 209 +/- 10 No _unit)
Format: toxicity, organism-based
Conditions: salmonella enterica subsp. enterica serovar typhimurium, 30000 µM

Compound | Activity
Cc1c(C)c2c(c(C)c1OC(=O)CCC(=O)NCC1CC(C)(C)N([O])C1(C)C)CCC(C)(C(=O)NCC1CC(C)(C)N([O])C1(C)C)O2 (stereo unspecified) | 209

Test system: not listed separately
Experiment: Ratio of IC50 for human MT4 cells to concentration causing antioxidant activity in Salmonella typhimurium TA102 harboring […] mutant
Format: functional
Conditions: not given

Compound | Ratio
Cc1c(C)c2c(c(C)c1OC(=O)CCC(=O)NCC1CC(C)(C)N([O])C1(C)C)CCC(C)(C(=O)NCC1CC(C)(C)N([O])C1(C)C)O2 (stereo unspecified) | 100 - 1000

Test system: not listed separately
Experiment: Cytotoxicity against human MCF7 cells assessed as reduction in cell viability after 72 hrs by MTT assay
Format: functional, cell-based
Conditions: MCF7, 72 h

Compound | IC50
Cc1c(C)c2c(c(C)c1OC(=O)CCC(=O)NCC1CC(C)(C)N([O])C1(C)C)CCC(C)(C(=O)NCC1CC(C)(C)N([O])C1(C)C)O2 (stereo unspecified) | > 300 µM

Test system: not listed separately
Experiment: Cytotoxicity against mouse LMTK cells assessed as reduction in cell viability after 72 hrs by MTT assay
Format: toxicity
Conditions: not given

Compound | IC50 at 72 h
Cc1c(C)c2c(c(C)c1OC(=O)CCC(=O)NCC1CC(C)(C)N([O])C1(C)C)CCC(C)(C(=O)NCC1CC(C)(C)N([O])C1(C)C)O2 (stereo unspecified) | > 300 µM

Test system: not listed separately
Experiment: Cytotoxicity against human HepG2 cells assessed as reduction in cell viability after 72 hrs by MTT assay
Format: functional, cell-based
Conditions: HepG2, 72 h

Compound | IC50
Cc1c(C)c2c(c(C)c1OC(=O)CCC(=O)NCC1CC(C)(C)N([O])C1(C)C)CCC(C)(C(=O)NCC1CC(C)(C)N([O])C1(C)C)O2 (stereo unspecified) | 176 µM

Test system: not listed separately
Experiment: Ratio of IC50 for human CEM13 cells to concentration causing antioxidant activity in Salmonella typhimurium TA102 harboring […] mutant
Format: functional
Conditions: not given

Compound | Ratio
Cc1c(C)c2c(c(C)c1OC(=O)CCC(=O)NCC1CC(C)(C)N([O])C1(C)C)CCC(C)(C(=O)NCC1CC(C)(C)N([O])C1(C)C)O2 (stereo unspecified) | 100 - 1000

Test system: not listed separately
Experiment: Ratio of IC50 for human MCF7 cells to concentration causing antioxidant activity in Salmonella typhimurium TA102 harboring […] mutant
Format: functional
Conditions: not given

Compound | Ratio
Cc1c(C)c2c(c(C)c1OC(=O)CCC(=O)NCC1CC(C)(C)N([O])C1(C)C)CCC(C)(C(=O)NCC1CC(C)(C)N([O])C1(C)C)O2 (stereo unspecified) | 100 - 1000

Test system: Salmonella enterica subsp. enterica serovar Typhimurium
Experiment: Antioxidant activity in Salmonella typhimurium TA102 harboring […] mutant assessed as inhibition of t-BuO2H-dependant mutant formation at 0.3 uM preincubated with compound followed by t-BuO2H addition after 48 hrs by Ames test
Format: functional
Conditions: not given

Compound | inhibition
Cc1c(C)c2c(c(C)c1OC(=O)CCC(=O)NCC1CC(C)(C)N([O])C1(C)C)CCC(C)(C(=O)NCC1CC(C)(C)N([O])C1(C)C)O2 (stereo unspecified) | 13%

Test system: not listed separately
Experiment: Cytotoxicity against human MCF7 cells assessed as reduction in cell viability at 300 uM after 72 hrs by MTT assay
Format: functional
Conditions: MCF7, 72 h

Compound | inhibition at 300 µM
Cc1c(C)c2c(c(C)c1OC(=O)CCC(=O)NCC1CC(C)(C)N([O])C1(C)C)CCC(C)(C(=O)NCC1CC(C)(C)N([O])C1(C)C)O2 (stereo unspecified) | 32%

Test system: Salmonella enterica subsp. enterica serovar Typhimurium
Experiment: Antioxidant activity in Salmonella typhimurium TA102 harboring […] mutant assessed as inhibition of t-BuO2H-dependant mutant formation at 30 uM preincubated with compound followed by t-BuO2H addition after 48 hrs by Ames test
Format: functional
Conditions: not given

Compound | inhibition
Cc1c(C)c2c(c(C)c1OC(=O)CCC(=O)NCC1CC(C)(C)N([O])C1(C)C)CCC(C)(C(=O)NCC1CC(C)(C)N([O])C1(C)C)O2 (stereo unspecified) | 20%

Test system: not listed separately
Experiment: Ratio of IC50 for human U937 cells to concentration causing antioxidant activity in Salmonella typhimurium TA102 harboring […] mutant
Format: functional, U-937
Conditions: not given

Compound | Ratio
Cc1c(C)c2c(c(C)c1OC(=O)CCC(=O)NCC1CC(C)(C)N([O])C1(C)C)CCC(C)(C(=O)NCC1CC(C)(C)N([O])C1(C)C)O2 (stereo unspecified) | 100 - 1000

Test system: Salmonella enterica subsp. enterica serovar Typhimurium
Experiment: Antioxidant activity in Salmonella typhimurium TA102 harboring […] mutant assessed as inhibition of t-BuO2H-dependant mutant formation at 3 uM preincubated with compound followed by t-BuO2H addition after 48 hrs by Ames test
Format: functional
Conditions: not given

Compound | inhibition
Cc1c(C)c2c(c(C)c1OC(=O)CCC(=O)NCC1CC(C)(C)N([O])C1(C)C)CCC(C)(C(=O)NCC1CC(C)(C)N([O])C1(C)C)O2 (stereo unspecified) | 23%

Test system: not listed separately
Experiment: Ratio of IC50 for human HEPG2 cells to concentration causing antioxidant activity in Salmonella typhimurium TA102 harboring […] mutant
Format: functional
Conditions: not given

Compound | Ratio
Cc1c(C)c2c(c(C)c1OC(=O)CCC(=O)NCC1CC(C)(C)N([O])C1(C)C)CCC(C)(C(=O)NCC1CC(C)(C)N([O])C1(C)C)O2 (stereo unspecified) | 100 - 1000

Test system: not listed separately
Experiment: Cytotoxicity against hamster AG17-1 cells assessed as reduction in cell viability after 72 hrs by MTT assay
Format: toxicity, cell-based, Cricetulus griseus
Conditions: Chinese hamster

Compound | IC50 at 72 h
Cc1c(C)c2c(c(C)c1OC(=O)CCC(=O)NCC1CC(C)(C)N([O])C1(C)C)CCC(C)(C(=O)NCC1CC(C)(C)N([O])C1(C)C)O2 (stereo unspecified) | 50 µM

Test system: not listed separately
Experiment: Cytotoxicity against human CEM13 cells assessed as reduction in cell viability after 72 hrs by MTT assay
Format: functional, cell-based
Conditions: CEM13, 72 h

Compound | IC50
Cc1c(C)c2c(c(C)c1OC(=O)CCC(=O)NCC1CC(C)(C)N([O])C1(C)C)CCC(C)(C(=O)NCC1CC(C)(C)N([O])C1(C)C)O2 (stereo unspecified) | 107 µM

Test system: not listed separately
Experiment: Cytotoxicity against human MT4 cells assessed as reduction in cell viability after 72 hrs by MTT assay
Format: functional, cell-based
Conditions: MT4, 72 h

Compound | IC50
Cc1c(C)c2c(c(C)c1OC(=O)CCC(=O)NCC1CC(C)(C)N([O])C1(C)C)CCC(C)(C(=O)NCC1CC(C)(C)N([O])C1(C)C)O2 (stereo unspecified) | 114 µM

Test system: not listed separately
Experiment: Cytotoxicity against human U937 cells assessed as reduction in cell viability after 72 hrs by MTT assay
Format: functional, cell-based
Conditions: U-937, 72 h

Compound | IC50
Cc1c(C)c2c(c(C)c1OC(=O)CCC(=O)NCC1CC(C)(C)N([O])C1(C)C)CCC(C)(C(=O)NCC1CC(C)(C)N([O])C1(C)C)O2 (stereo unspecified) | 61 µM

Test system: not listed separately
Experiment: Cytotoxicity against mouse LMTK cells assessed as reduction in cell viability at 300 uM after 72 hrs by MTT assay
Format: toxicity
Conditions: read-out: INH

Compound | cytotoxicity at 72 h, 300 µM
Cc1c(C)c2c(c(C)c1OC(=O)CCC(=O)NCC1CC(C)(C)N([O])C1(C)C)CCC(C)(C(=O)NCC1CC(C)(C)N([O])C1(C)C)O2 (stereo unspecified) | 10%

Test system: not listed separately
Experiment: Ratio of IC50 for human RPMI8226 cells to concentration causing antioxidant activity in Salmonella typhimurium TA102 harboring […] mutant
Format: functional, RPMI-8226
Conditions: not given

Compound | Ratio
Cc1c(C)c2c(c(C)c1OC(=O)CCC(=O)NCC1CC(C)(C)N([O])C1(C)C)CCC(C)(C(=O)NCC1CC(C)(C)N([O])C1(C)C)O2 (stereo unspecified) | 100 - 1000
